Assay results: patent publication US9079913B2, “Spiro-oxindole MDM2 antagonists” (The Regents of the University of Michigan, priority 2009, dated 2015)
“And” between values parts separate entries of the source, which are not always exact repeats. Identical values can stand only once.

Legend:
[1] = Pharmacokinetic studies in rats; type: in vivo, rat; conditions: for Plasma Concentration: male rat
Procedure: Pharmacokinetic studies on MDM2 inhibitors were carried out in rat. For comparison, the MDM2 inhibitor, AT-219, was also studied.

[2] = In vitro microsomal stability, dog; type: in vitro ADME; conditions: for Microsomal stability, % remaining: Dog microsomes
[3] = test system: SJSA-1 xenograft tumors; conditions: mice bearing SJSA-1 xenograft, oral 200-300 mg/kg daily or twice a day, 2 weeks; cited from earlier work
[4] = Microsomal stability study, negative control incubation; type: in vitro ADME
[5] = rats, IV 5 mg/kg, animals and MEAN
[6] = rats, IV 5 mg/kg, animals and MEAN, mean
[7] = rats, PO 25 mg/kg, animals and MEAN

Substance: MI-219
- Plasma Concentration ([1]; IV 5 mg/kg, 1 hr, animals and Mean): 330.71 ng/mL and 344.66 ng/mL
- Plasma Concentration ([1]; IV 5 mg/kg, 1 hr, animals and Mean, mean): 337.68 ng/mL
- Plasma Concentration ([1]; IV 5 mg/kg, 2 hr, animals and Mean): 164.88 ng/mL and 134.91 ng/mL
- Plasma Concentration ([1]; IV 5 mg/kg, 2 hr, animals and Mean, mean): 149.90 ng/mL
- Plasma Concentration ([1]; IV 5 mg/kg, 4 hr, animals and Mean): 49.27 ng/mL and 56.50 ng/mL
- Plasma Concentration ([1]; IV 5 mg/kg, 4 hr, animals and Mean, mean): 52.88 ng/mL
- Plasma Concentration ([1]; IV 5 mg/kg, 6 hr, animals and Mean): 24.18 ng/mL and 32.66 ng/mL
- Plasma Concentration ([1]; IV 5 mg/kg, 6 hr, animals and Mean, mean): 28.42 ng/mL
- Plasma Concentration ([1]; IV 5 mg/kg, 8 hr, animals and Mean): 11.05 ng/mL and 18.98 ng/mL
- Plasma Concentration ([1]; IV 5 mg/kg, 8 hr, animals and Mean, mean): 15.02 ng/mL
- Plasma Concentration ([1]; IV 5 mg/kg, 24 hr, animals and Mean): 1.86 ng/mL and 1.28 ng/mL
- Plasma Concentration ([1]; IV 5 mg/kg, 24 hr, animals and Mean, mean): 1.57 ng/mL
- Plasma Concentration ([1]; PO 25 mg/kg, 0.083 hr, animals M6-M8 and Mean): 1526.57 ng/mL and 1380.03 ng/mL and 1642.42 ng/mL
- Plasma Concentration ([1]; PO 25 mg/kg, 0.083 hr, animals M6-M8 and Mean, mean): 1516.34 ng/mL
- Plasma Concentration ([1]; PO 25 mg/kg, 0.5 hr, animals and Mean): 3332.19 ng/mL and 2500.25 ng/mL and 4278.56 ng/mL
- Plasma Concentration ([1]; PO 25 mg/kg, 0.5 hr, animals and Mean, mean): 3370.33 ng/mL
- Plasma Concentration ([1]; PO 25 mg/kg, 1 hr, animals and Mean): 3101.06 ng/mL and 2957.44 ng/mL and 1779.31 ng/mL
- Plasma Concentration ([1]; PO 25 mg/kg, 1 hr, animals and Mean, mean): 2612.60 ng/mL
- Plasma Concentration ([1]; PO 25 mg/kg, 2 hr, animals and Mean): 1064.21 ng/mL and 1534.41 ng/mL and 1342.18 ng/mL
- Plasma Concentration ([1]; PO 25 mg/kg, 2 hr, animals and Mean, mean): 1313.60 ng/mL
- Plasma Concentration ([1]; PO 25 mg/kg, 4 hr, animals and Mean): 296.644 ng/mL and 223.937 ng/mL and 407.415 ng/mL
- Plasma Concentration ([1]; PO 25 mg/kg, 4 hr, animals and Mean, mean): 309.33 ng/mL
- Plasma Concentration ([1]; PO 25 mg/kg, 6 hr, animals and Mean): 103.285 ng/mL and 90.8093 ng/mL and 131.398 ng/mL
- Plasma Concentration ([1]; PO 25 mg/kg, 6 hr, animals and Mean, mean): 108.50 ng/mL
- Plasma Concentration ([1]; PO 25 mg/kg, 8 hr, animals and Mean): 80.4445 ng/mL and 66.2777 ng/mL
- Plasma Concentration ([1]; PO 25 mg/kg, 8 hr, animals and Mean, mean): 64.76 ng/mL
- Plasma Concentration ([1]; PO 25 mg/kg, 24 hr, animals and Mean): 25.1348 ng/mL and 17.5136 ng/mL and 20.2154 ng/mL
- Plasma Concentration ([1]; PO 25 mg/kg, 24 hr, animals and Mean, mean): 20.95 ng/mL
- % F ([1]; male rats, oral dose 25 mg/kg): 65%
- AUC(0-t) ([1]; male rats, oral dose 25 mg/kg): 7677 ± 328
- Cmax ([1]; male rats, oral dose 25 mg/kg): 3751 ± 1068 ng/mL
- T1/2 ([1]; male rats, oral dose 25 mg/kg): 1.4 ± 0.1 h
- oral bioavailability / oral pharmacokinetics in rats (in words) ([1]; oral dosing, rats): orally bioavailable
- AUC(0-t) [1, 5]: 2318.88 µg·h/L and 2379.54 µg·h/L
- AUC(0-∞) [1, 5]: 2319.77 ng·h/mL and 2379.62 ng·h/mL
- CLz [1, 5]: 36 mL/min/kg and 35 mL/min/kg
- Cmax [1, 5]: 5229.30 ng/mL and 5873.30 ng/mL
- MRT(0-∞) [1, 5]: 1.51 h and 1.26 h
- T1/2 [1, 5]: 2.54 h and 1.86 h
- Vz [1, 5]: 7.90 L/kg and 5.62 L/kg
- AUC(0-t) [1, 6]: 2349.21 µg·h/L
- AUC(0-∞) [1, 6]: 2349.69 ng·h/mL
- CLz [1, 6]: 35.5 mL/min/kg
- Cmax [1, 6]: 5551.30 ng/mL
- MRT(0-∞) [1, 6]: 1.38 h
- T1/2 [1, 6]: 2.20 h
- Vz [1, 6]: 6.76 L/kg
- F ([1]; rats, PO 25 mg/kg vs IV 5 mg/kg, animals and MEAN): 65.45±2.77% and 62.81% and 65.22% and 68.34% and 65.45%
- AUC(0-t) [1, 7]: 7378.78 µg·h/L and 7623.45 µg·h/L and 8028.71 µg·h/L
- AUC(0-∞) [1, 7]: 7689.94 ± 325.86 ng·h/mL and 7378.81 ng·h/mL and 7662.25 ng·h/mL and 8028.76 ng·h/mL and 7689.94 ng·h/mL
- Cmax [1, 7]: 3332.19 ng/mL and 2957.44 ng/mL and 4965.7 ng/mL and 3751.78 ng/mL
- MRT(0-∞) [1, 7]: 2.64 h and 2.67 h and 2.62 h
- T1/2 [1, 7]: 1.36 h and 1.54 h and 1.40 h and 1.43 h
- AUC(0-t) ([1]; rats, PO 25 mg/kg, animals and MEAN, mean): 7676.98 µg·h/L
- Microsomal stability, % remaining ([2]; 0 min): 100.00%
- Microsomal stability, % remaining ([2]; 5 min): 83.38%
- Microsomal stability, % remaining ([2]; 10 min): 71.22%
- Microsomal stability, % remaining ([2]; 15 min): 71.51%
- Microsomal stability, % remaining ([2]; 30 min): 54.96%
- Microsomal stability, % remaining ([2]; 45 min): 33.81%
- Microsomal stability, % remaining ([2]; 60 min): 32.52%
- microsomal stability (in words) ([2]; dog microsomes): metabolized fairly rapidly
- tumor growth inhibition (in words) [3]: effective tumor growth inhibition
- Microsomal stability, % remaining ([4]; 0 min): 100.00%
- Microsomal stability, % remaining ([4]; 5 min): 102.63%
- Microsomal stability, % remaining ([4]; 10 min): 105.25%
- Microsomal stability, % remaining ([4]; 15 min): 109.19%
- Microsomal stability, % remaining ([4]; 30 min): 111.07%
- Microsomal stability, % remaining ([4]; 45 min): 104.13%
- Microsomal stability, % remaining ([4]; 60 min): 109.01%
